Experimental findings from patent publication US11154067B2, “Membrane and method for preservation of produce” (Agricultural Research Council, priority 2015, dated 2021) are described below.

Common to all, as to format: in vivo
What all share (conditions): controlled atmosphere 28 days followed by 7 days at 20° C.

One test relates to Botrytis cinerea. As to the kind of experiment: Postharvest dip trials of apples against Botrytis cinerea.
Another test has as its system Penicillium expansum. As to the kind of experiment: Postharvest dip trials of apples against Penicillium expansum.
In a further test the test system is Neofabraea alba. Kind of test: Postharvest dip trials of apples against Neofabraea alba.

Regarding `CCO` [Ethanol], the “antimicrobial efficacy indicated as percentage value” with Botrytis cinerea ('Golden Delicious' apples) was determined as 13.98%; in the test on Botrytis cinerea ('Granny Smith' apples), 16.53%; in the test on Botrytis cinerea ('Pink Lady' apples), 2.88%; in the test on Penicillium expansum ('Golden Delicious' apples), 18.07%; in the test with Penicillium expansum ('Granny Smith' apples), 18.75%; with Penicillium expansum ('Pink Lady' apples) it was 0.16%. The “antimicrobial efficacy indicated as percentage value” is given as 10.41% in the test with Neofabraea alba ('Golden Delicious' apples), 21.87% with Neofabraea alba ('Granny Smith' apples) and 19.25% with Neofabraea alba ('Pink Lady' apples).
